From US11178871B2, “Herbicidal pyrimidine compounds” (BASF SE, priority 2016, dated 2021)

How the values were obtained:
Assay type in all cases: in vivo
Amaranthus retroflexus = test: greenhouse test, post-emergence treatment, AMARE
Text: (§1) The culture containers used were plastic flowerpots containing loamy sand with approximately 3.0% of humus as the substrate. The seeds of the test plants were sown separately for each species.
(§2) For the post-emergence treatment, the test plants were first grown to a height of 3 to 15 cm, depending on the plant habit, and only then treated with the active ingredients which had been suspended or emulsified in water. For this purpose, the test plants were either sown directly and grown in the same containers, or they were first grown separately as seedlings and transplanted into the test containers a few days prior to treatment.
(§3) Depending on the species, the plants were kept at 10-25° C. or 20-35° C., respectively.
(§4) The test period extended over 2 to 4 weeks. During this time, the plants were tended, and their response to the individual treatments was evaluated.
(§5) Evaluation was carried out using a scale from 0 to 100. 100 means no emergence of the plants, or complete destruction of at least the aerial moieties, and 0 means no damage, or normal course of growth. A good herbicidal activity is given at values of at least 70 and a very good herbicidal activity is given at values of at least 85.
(§6) The plants used in the greenhouse experiments were of the following species: […]

Echinocloa crus-galli [1] = test: greenhouse test, post-emergence treatment, ECHCG; conditions: post-emergence
Summary of the method: (§7)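 Post-emergence greenhouse herbicide test: plants at 3–15 cm sprayed with aqueous formulation of compound, then evaluated on a 0–100 damage scale after 2–4 weeks.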

Alopecurus myosuroides = test: greenhouse test, post-emergence treatment, ALOMY; conditions: post-emergence
Summary of the method: as §7

Apera spica-venti = test: greenhouse test, pre-emergence treatment, APESV
Summary of the method: (§8)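 Damage scored visually on a 0-100 scale (100 = no emergence or complete destruction of aerial parts, 0 = normal growth) after 2 to 4 weeks. Treatment was applied pre-emergence as an aqueous suspension or emulsion immediately after sowing in loamy sand (approx. 3.0% humus).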

Setaria viridis = test: greenhouse test, post-emergence treatment, SETVI
Text: as §1, §2, §3, §4, §5, §6

Avena fatua = test: greenhouse test, post-emergence treatment, AVEFA
Summary of the method: as §7

Echinocloa crus-galli [2] = test: greenhouse test, pre-emergence treatment, ECHCG
Summary of the method: as §8

## Cc1occc1-c1nc(C2CC2)ncc1-c1ccccc1Br [Ex. 238]
Amaranthus retroflexus; 2000 g/ha
  herbicidal activity: very good (a very good herbicidal activity is given at values of at least 85)
Echinocloa crus-galli [1]; 2000 g/ha
  herbicidal activity: very good (a very good herbicidal activity is given at values of at least 85)

## Cc1cc(-c2nc(C3CC3)ncc2-c2ccccc2Cl)sn1 [Ex. 254]
Alopecurus myosuroides; 1000 g/ha
  herbicidal activity: good (A good herbicidal activity is given at values of at least 70)
Amaranthus retroflexus; 1000 g/ha
  herbicidal activity: very good (a very good herbicidal activity is given at values of at least 85)
Echinocloa crus-galli [1]; 1000 g/ha
  herbicidal activity: very good (a very good herbicidal activity is given at values of at least 85)

## COC(=O)C(O)Cc1nc(C2CC2)ncc1-c1ccccc1Cl (centres unmarked) [Ex. 129]
Alopecurus myosuroides; 2000 g/ha
  herbicidal activity: very good (a very good herbicidal activity is given at values of at least 85)
Amaranthus retroflexus; 2000 g/ha
  herbicidal activity: very good (a very good herbicidal activity is given at values of at least 85)
Echinocloa crus-galli [1]; 2000 g/ha
  herbicidal activity: very good (a very good herbicidal activity is given at values of at least 85)
Apera spica-venti; 2000 g/ha
  herbicidal activity: very good (a very good herbicidal activity is given at values of at least 85)

## Clc1ccccc1-c1cnc(C2CC2)nc1CC1CCCC1 [Ex. 99]
Setaria viridis; 2000 g/ha
  herbicidal activity: very good (a very good herbicidal activity is given at values of at least 85)

## CC(C)=Cc1nc(C2CC2)ncc1-c1ccccc1Cl [Ex. 70]
Alopecurus myosuroides; 2000 g/ha
  herbicidal activity: very good (a very good herbicidal activity is given at values of at least 85)
Setaria viridis; 2000 g/ha
  herbicidal activity: very good (a very good herbicidal activity is given at values of at least 85)

## O=C(O)/C=C/c1nc(C2CC2)ncc1-c1ccccc1Cl [Ex. 131]
Amaranthus retroflexus; 2000 g/ha
  herbicidal activity: very good (a very good herbicidal activity is given at values of at least 85)
Echinocloa crus-galli [1]; 2000 g/ha
  herbicidal activity: very good (a very good herbicidal activity is given at values of at least 85)

## Cc1nc(C(C)Br)ncc1-c1ccccc1Cl (centres unmarked) [Ex. 52]
Setaria viridis; 1000 g/ha
  herbicidal activity: very good (a very good herbicidal activity is given at values of at least 85)

## O=[N+]([O-])c1ccccc1-c1cnc(C2CC2)nc1-c1cccs1 [Ex. 38]
Setaria viridis; 1000 g/ha
  herbicidal activity: good (A good herbicidal activity is given at values of at least 70)

## OCc1nc(C2CC2)ncc1-c1ccc(F)cc1Cl [Ex. 15]
Alopecurus myosuroides; 1000 g/ha
  herbicidal activity: very good (a very good herbicidal activity is given at values of at least 85)
Amaranthus retroflexus; 1000 g/ha
  herbicidal activity: good (A good herbicidal activity is given at values of at least 70)
Avena fatua; 1000 g/ha
  herbicidal activity: very good (a very good herbicidal activity is given at values of at least 85)
Apera spica-venti; 1000 g/ha
  herbicidal activity: very good (a very good herbicidal activity is given at values of at least 85)
Echinocloa crus-galli [2]; 1000 g/ha
  herbicidal activity: very good (a very good herbicidal activity is given at values of at least 85)

## CCc1ncc(-c2ccccc2Br)c(-c2ccco2)n1 [Ex. 62]
Setaria viridis; 500 g/ha
  herbicidal activity: very good (a very good herbicidal activity is given at values of at least 85)

## Brc1ccccc1-c1cnc(C2CC2)nc1-c1csc2ccccc12 [Ex. 47]
Amaranthus retroflexus; 1000 g/ha
  herbicidal activity: very good (a very good herbicidal activity is given at values of at least 85)

## COc1ccc(-c2nc(C3CC3)ncc2-c2ccccc2Cl)cc1 [Ex. 164]
Amaranthus retroflexus; 2000 g/ha
  herbicidal activity: very good (a very good herbicidal activity is given at values of at least 85)

## CCOC(=O)Cc1nc(OC)ncc1-c1ccccc1Cl [Ex. 226]
Amaranthus retroflexus; 500 g/ha
  herbicidal activity: very good (a very good herbicidal activity is given at values of at least 85)

## COC(=O)CCc1nc(C2CC2)ncc1-c1ccccc1Cl [Ex. 132]
Amaranthus retroflexus; 2000 g/ha
  herbicidal activity: good (A good herbicidal activity is given at values of at least 70)
Echinocloa crus-galli [1]; 2000 g/ha
  herbicidal activity: very good (a very good herbicidal activity is given at values of at least 85)

## O=P(O)(O)C(Cc1nc(C2CC2)ncc1-c1ccccc1Cl)P(=O)(O)O [Ex. 90]
Setaria viridis; 2000 g/ha
  herbicidal activity: very good (a very good herbicidal activity is given at values of at least 85)

## OCCc1nc(C2CC2)ncc1-c1ccccc1Cl [Ex. 255]
Amaranthus retroflexus; 500 g/ha
  herbicidal activity: good (A good herbicidal activity is given at values of at least 70)

## OC1(Cc2nc(C3CC3)ncc2-c2ccccc2Cl)CCCC1 [Ex. 74]
Setaria viridis; 2000 g/ha
  herbicidal activity: very good (a very good herbicidal activity is given at values of at least 85)

## CCOP(=O)(OCC)C(Cc1nc(C2CC2)ncc1-c1ccccc1Cl)P(=O)(OCC)OCC [Ex. 88]
Setaria viridis; 2000 g/ha
  herbicidal activity: very good (a very good herbicidal activity is given at values of at least 85)

## Clc1ccccc1-c1cnc(C2CC2)nc1CC1CCC1 [Ex. 98]
Setaria viridis; 500 g/ha
  herbicidal activity: good (A good herbicidal activity is given at values of at least 70)

## Fc1cccc(-c2cnc(C3CC3)nc2-c2ccco2)c1Cl [Ex. 33]
Setaria viridis; 2000 g/ha
  herbicidal activity: good (A good herbicidal activity is given at values of at least 70)

## Clc1ccccc1-c1cnc(C2CC2)nc1/C=C/c1c(Cl)ccc(Cl)c1Cl [Ex. 232]
Amaranthus retroflexus; 2000 g/ha
  herbicidal activity: very good (a very good herbicidal activity is given at values of at least 85)

## COC(=O)Cc1nc(C2CC2)ncc1-c1cc(F)ccc1Cl [Ex. 150]
Alopecurus myosuroides; 2000 g/ha
  herbicidal activity: good (A good herbicidal activity is given at values of at least 70)
Amaranthus retroflexus; 2000 g/ha
  herbicidal activity: very good (a very good herbicidal activity is given at values of at least 85)
Echinocloa crus-galli [1]; 2000 g/ha
  herbicidal activity: very good (a very good herbicidal activity is given at values of at least 85)
Apera spica-venti; 2000 g/ha
  herbicidal activity: very good (a very good herbicidal activity is given at values of at least 85)
Echinocloa crus-galli [2]; 2000 g/ha
  herbicidal activity: good (A good herbicidal activity is given at values of at least 70)

## Ic1ccccc1-c1cnc(C2CCC2)nc1-c1ccco1 [Ex. 78]
Setaria viridis; 1000 g/ha
  herbicidal activity: very good (a very good herbicidal activity is given at values of at least 85)

## CC(C)(C)CCc1nc(C2CC2)ncc1-c1ccccc1Cl [Ex. 103]
Setaria viridis; 2000 g/ha
  herbicidal activity: very good (a very good herbicidal activity is given at values of at least 85)

## CC(Br)c1ncc(-c2ccccc2Cl)c(CBr)n1 (centres unmarked) [Ex. 51]
Setaria viridis; 1000 g/ha
  herbicidal activity: very good (a very good herbicidal activity is given at values of at least 85)

## OC1(Cc2nc(C3CC3)ncc2-c2ccccc2Cl)CCC1 [Ex. 65]
Amaranthus retroflexus; 2000 g/ha
  herbicidal activity: very good (a very good herbicidal activity is given at values of at least 85)
Echinocloa crus-galli [1]; 2000 g/ha
  herbicidal activity: very good (a very good herbicidal activity is given at values of at least 85)

## COC(=O)COC(C)c1nc(C2CC2)ncc1-c1ccccc1Cl (centres unmarked) [Ex. 141]
Setaria viridis; 1000 g/ha
  herbicidal activity: good (A good herbicidal activity is given at values of at least 70)

## CC(O)c1nc(C2CC2)ncc1-c1ccccc1Br (centres unmarked) [Ex. 114]
Setaria viridis; 500 g/ha
  herbicidal activity: very good (a very good herbicidal activity is given at values of at least 85)

## CCc1nc(C)c(-c2nc(C3CC3)ncc2-c2ccccc2Br)o1 [Ex. 290]
Alopecurus myosuroides; 2000 g/ha
  herbicidal activity: very good (a very good herbicidal activity is given at values of at least 85)
Avena fatua; 2000 g/ha
  herbicidal activity: very good (a very good herbicidal activity is given at values of at least 85)
Echinocloa crus-galli [1]; 2000 g/ha
  herbicidal activity: very good (a very good herbicidal activity is given at values of at least 85)
Apera spica-venti; 2000 g/ha
  herbicidal activity: very good (a very good herbicidal activity is given at values of at least 85)
Echinocloa crus-galli [2]; 2000 g/ha
  herbicidal activity: very good (a very good herbicidal activity is given at values of at least 85)

## Cc1nc(C)c(-c2nc(C3CC3)ncc2-c2cc(F)ccc2Cl)o1 [Ex. 284]
Alopecurus myosuroides; 2000 g/ha
  herbicidal activity: very good (a very good herbicidal activity is given at values of at least 85)
Avena fatua; 2000 g/ha
  herbicidal activity: very good (a very good herbicidal activity is given at values of at least 85)
Echinocloa crus-galli [1]; 2000 g/ha
  herbicidal activity: very good (a very good herbicidal activity is given at values of at least 85)
Apera spica-venti; 2000 g/ha
  herbicidal activity: very good (a very good herbicidal activity is given at values of at least 85)
Echinocloa crus-galli [2]; 2000 g/ha
  herbicidal activity: very good (a very good herbicidal activity is given at values of at least 85)

## OC1(c2nc(C3CC3)ncc2-c2ccccc2Cl)CCCC1 [Ex. 127]
Amaranthus retroflexus; 2000 g/ha
  herbicidal activity: very good (a very good herbicidal activity is given at values of at least 85)

## Clc1ccccc1-c1cnc(C2CC2)nc1CC1CCOCC1 [Ex. 96]
Setaria viridis; 1000 g/ha
  herbicidal activity: very good (a very good herbicidal activity is given at values of at least 85)

## Cc1ncoc1-c1nc(C2CC2)ncc1-c1cc(C(F)(F)F)ccc1Br [Ex. 263]
Alopecurus myosuroides; 1000 g/ha
  herbicidal activity: very good (a very good herbicidal activity is given at values of at least 85)
Avena fatua; 1000 g/ha
  herbicidal activity: very good (a very good herbicidal activity is given at values of at least 85)
Echinocloa crus-galli [1]; 1000 g/ha
  herbicidal activity: very good (a very good herbicidal activity is given at values of at least 85)
Apera spica-venti; 1000 g/ha
  herbicidal activity: very good (a very good herbicidal activity is given at values of at least 85)
Echinocloa crus-galli [2]; 1000 g/ha
  herbicidal activity: very good (a very good herbicidal activity is given at values of at least 85)

## OC(c1ccccc1)C(O)c1nc(C2CC2)ncc1-c1ccccc1Cl (centres unmarked) [Ex. 153]
Alopecurus myosuroides; 2000 g/ha
  herbicidal activity: very good (a very good herbicidal activity is given at values of at least 85)
Avena fatua; 2000 g/ha
  herbicidal activity: very good (a very good herbicidal activity is given at values of at least 85)
Echinocloa crus-galli [1]; 2000 g/ha
  herbicidal activity: very good (a very good herbicidal activity is given at values of at least 85)
Apera spica-venti; 2000 g/ha
  herbicidal activity: very good (a very good herbicidal activity is given at values of at least 85)
Echinocloa crus-galli [2]; 2000 g/ha
  herbicidal activity: very good (a very good herbicidal activity is given at values of at least 85)
